{
  "source": "patent US20230314440A1",
  "about": "“METHOD OF TREATING CANCER” (priority 2020, published 2023)",
  "origin": "cited, not measured here",
  "system": "metastatic renal cell carcinoma (RCC)",
  "conditions": "patients with metastatic RCC; ESMO 2018, Presentation No. 882P",
  "data": [
    {"smiles": "COc1cc2nccc(Oc3ccc(NC(=O)C4(C(=O)Nc5ccc(F)cc5)CC4)cc3)c2cc1OC", "note": "[cabozantinib, N-(4-{[6,7-bis(methyloxy)quinolin-4-yl]oxy}phenyl)-N′-(4-fluorophenyl)cyclopropane-1,1-dicarboxamide]", "values": [
      {"measurement": "effect on systemic tumor immunity", "value": "has an impact on systemic tumor immunity"}
    ]}
  ]
}
